Like-named read-outs stand apart in the source and are kept apart here.
Legend:
[1] = test system: purified secondary alcohol dehydrogenase from Pichia sp. NRRL Y-11,328; experiment: Substrate specificity, electron acceptor and stoichiometry of purified yeast SADH; format: biochemical; conditions: for oxidation by the purified enzyme: examined spectrophotometrically
[2] = test system: purified secondary alcohol dehydrogenase (SADH) from Pseudomonas sp. ATCC 21439; experiment: Effect of metal-chelating agents and thio reagents on purified SADH; format: biochemical
Procedure: Secondary alcohol dehydrogenase (SADH) from an obligate methanol utilizer, Pseudomonas sp. ATCC 21439 was purified as follows. […] 0.05 M sodium phosphate buffer, pH 7.0 with 0.5 mM dithiothretol (buffer A) and were disrupted sonically (5×1 min.). The crude extract was separated by centrifugation. The crude extract was heat-treated at 50° C. in a water bath for 10 minutes. The resulting precipitate was removed by centrifugation. To the supernatant solution, 25 ml of protamine sulfate solution (2% solution in 0.1 M Tris base) was added dropwise with continuous stirring. After standing for 30 minutes, the extract was centrifuged. The supernatant solution was fractionated with solid ammonium sulfate. […] This DEAE-cellulose eluate was concentrated by ammonium sulfate fractionation. Material precipitating between 30 and 50% ammonium sulfate saturation was collected by centrifugation and dialyzed overnight against A. This fraction was further washed and filtered through an Amicon unit with XM 50 membrane. The concentrated fraction (6 ml) inside the Amicon unit was applied to an Affi-Gel Blue column (0.8 cm×18 cm) which had been equilibrated with buffer A for affinity chromatography. The column was washed overnight with buffer A (0.18 ml./min.) and then was eluted with buffer A containing 5 mM NAD. Each 1 ml. fraction was collected.
The purified secondary alcohol dehydrogenase enzyme (SADH) may be used directly for converting C3 -C6 secondary alcohols to the corresponding methyl ketones by the procedures described above; however, a source of NAD^+ must be added to the reaction medium. One can determine the NAD-linked secondary alcohol dehydrogenase activity with a fluorescence spectrophotometer (Perkin Elmer, Model MPF 44A) by following the formation of reduced NAD (Ex 340 nm, Em 460 nm). The assay system (3 ml.) will typically contain: sodium phosphate buffer pH 7.0, 150 μmol; NAD 1.0 μmol; a given amount of enzyme preparation; and 20 μmol secondary alcohol. The reaction is started by the addition of secondary alcohol. One unit of SADH enzyme activity represents the reduction of one nmole NAD per minute.
The effect of metal-chelating agents and chioreagents on the activity of the purified SADH enzyme were studied. […] The possibility of ethanol or n-propanol as an inhibitor was studied.

[3] = test system: P(40) particulate fraction of Methylosinus sp. (CRL-15, NRRL B-11,202); experiment: Effect of metals on propylene epoxidation and methane hydroxylation; format: biochemical; conditions: metal 10^-3 M, P(40) fraction; for Methane-Oxidizing Activity: control 4.0; for Propylene-Oxidizing Activity: control […]
Procedure: (§1) The oxidation of methane and propylene by particulate [(P)40 and (P)80] fractions and soluble [S(80)] fraction was measured at 30° C. by estimating the production of methanol and propylene oxide, respectively. The reaction mixtures contained in […]: 150 mM potassium phosphate buffer, pH 7.0 containing 5 mM MgCl2 b, 0.6 ml; 10μ moles NADH, and cellular fraction.
(§2) Reaction mixtures were contained in 10 ml vials at 4° C. Vials were sealed with rubber caps. The gaseous phase in the vials was removed using vacuum and then was replaced with a gas mixture of methane or propylene and oxygen at a 1:1, v/v ratio. Oxidation of other gaseous n-alkanes and n-alkanes was examined as described above. For liquid substrates, 10 μl of substrate was used directly.
Since the methane mono-oxygenase from methane-utlizing bacteria is a copper or iron-containing protein (Tonge et al., J. Biochem., 161: 333-344 (1977)), we have examined the effect of copper and iron salts on the oxidation of methane and propylene by the P(40) particulate fraction of Methylosinus sp. (CRL-15, NRRL B-11,202). The rate of hydroxylation of methane to methanol and epoxidation of propylene to propylene oxide was increased twofold in the presence of added copper salts (Table XII).

[4] = test system: Methylobacter vinelandii (CRL M5Y) NRRL B-11,218; experiment: Oxidation by washed cell suspensions of methane-grown cells; format: cell-based; conditions: methane-grown washed cells
Procedure: (§3) The pH of the nutrient medium was adjusted to 7.0 by the addition of acid or base and 50 ml samples of the nutrient medium were charged into a plurality of 300 ml shaker flasks. The shaker flasks were inoculated with an inoculating loop of cells from an agar plate containing homogeneous colonies of the microorganisms on the plate (the purity of the isolates was confirmed by microscopic examination. The isolates had been maintained on agar plates under an atmosphere of methane and air having a 1:1 v/v gas ratio which had been transferred evey two weeks. The gaseous phase of the inoculated flasks was then replaced with a gas mixture comprised of methane and air having a ratio of 1:1 on a v/v basis. The inoculated flasks were sealed air tight and were incubated on a rotary shaker of orbital radius 2.5 cm at 250 rpm and at 30° C. for two days until turbidity in the medium had developed.
(§4) The cells were harvested by centrifugation at 10,000×g. at 4° C. for 30 minutes. The cell pellet was washed twice with a 0.15 M phosphate buffer at a pH of 7.0 (containing 0.002 M MgCl2). The washed cells were then suspended in a 0.15 M phosphate buffer at pH 7.0.
(§5) A 0.5 ml sample of each washed cell suspension (2 mg cells) was put into 10 ml vials at 4° C. which were sealed with a rubber cap. The gaseous phase of the vials was removed with vacuum and then was replaced with a gas mixture of the oxidative substrate (e.g., methane) and oxygen at a 1:1 v/v ratio. The vials were then incubated at 30 ° C. on a rotary shaker at 300 rpm. Samples of product (3 μl) were withdrawn periodically with a microsyringe and the products were analyzed by gas chromatography (ionization flame detector column).
(§6) The newly discovered and isolated microorganism strains of the present invention were each grown aerobically in the presence of methane in the manner described above. The methane-grown microbial cells were then washed, recovered and put to use in oxidizing an oxidative substrate by the procedure described above except in the case of a liquid substrate 10 μl of the substrate were used.

[5] = test system: Methylococcus capsulatus (CRL M1) NRRL B-11,219; experiment: as above; format: cell-based; conditions: methane-grown cell-suspension; pH 7.0; 3° C.
Procedure: as §3, §4, §5, §6

[6] = biological target: T1, cell fractions of Methylosinus sp. (CRL-15, NRRL B-11,202) (Methylosinus trichosporium, UniProt Q50541+Q9KX50+Q9KX51); experiment: Oxidation by cell fractions P(40), P(80), S(80); format: biochemical; conditions: P(40) particulate fraction; alkene to epoxide, alkane to alcohol; 30° C.
T1 sequence (Q9KX50 40-431): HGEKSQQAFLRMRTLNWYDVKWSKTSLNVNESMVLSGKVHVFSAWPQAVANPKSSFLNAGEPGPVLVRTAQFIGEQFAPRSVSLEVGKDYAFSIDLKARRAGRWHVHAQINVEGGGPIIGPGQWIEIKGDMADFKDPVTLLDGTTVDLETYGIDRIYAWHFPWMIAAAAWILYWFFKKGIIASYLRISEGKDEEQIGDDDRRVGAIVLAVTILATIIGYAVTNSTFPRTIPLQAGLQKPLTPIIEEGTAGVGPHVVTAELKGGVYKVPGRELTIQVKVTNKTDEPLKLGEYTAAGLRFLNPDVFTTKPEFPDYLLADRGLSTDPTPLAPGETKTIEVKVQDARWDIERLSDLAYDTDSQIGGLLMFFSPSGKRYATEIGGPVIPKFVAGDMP
T1 sequence (Q50541 1-252): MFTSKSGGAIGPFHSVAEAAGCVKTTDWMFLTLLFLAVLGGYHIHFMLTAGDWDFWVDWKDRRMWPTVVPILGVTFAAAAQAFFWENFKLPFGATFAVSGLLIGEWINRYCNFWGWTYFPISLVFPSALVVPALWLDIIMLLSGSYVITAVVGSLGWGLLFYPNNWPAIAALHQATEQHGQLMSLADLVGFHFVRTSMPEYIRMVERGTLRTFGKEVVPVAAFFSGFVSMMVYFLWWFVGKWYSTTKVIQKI
T1 sequence (Q9KX51 1-256): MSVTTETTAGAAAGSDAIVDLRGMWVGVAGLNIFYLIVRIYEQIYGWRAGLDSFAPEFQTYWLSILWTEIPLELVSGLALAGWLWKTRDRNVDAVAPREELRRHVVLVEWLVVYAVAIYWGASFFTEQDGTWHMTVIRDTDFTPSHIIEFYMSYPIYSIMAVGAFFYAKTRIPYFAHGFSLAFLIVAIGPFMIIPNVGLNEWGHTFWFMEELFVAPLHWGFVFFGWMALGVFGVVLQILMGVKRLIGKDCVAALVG
Procedure: Cells were washed twice with 25 mM potassium phosphate buffer, pH 7.0 containing 5 mM MgCl2. Cells were suspended in the same buffer. The cell suspensions at 4° C. were disintegrated by a single passage through a French Pressure cell (15,000 lb./in.^2) and centrifuged at 5000×g. for 15 min. to remove unbroken bacteria. The supernatant solution (crude extract) was then centrifuged at 40,000×g. for 30 min., yielding particulate P(40) and soluble S(40) fractions. The S(40) fraction was subsequently centrifuged at 80,000×g. for 60 min., yielding particulate P(80) and soluble S(80) fractions. The particulate fractions [P(40) and P(80)] were suspended in 25 mM potassium phosphate buffer, pH 7.0, containing 5 mM MgCl2 and homogenized at 4° C.
as §1, §2
The products of epoxidation of n-alkenes and hydroxylation of n-alkanes were assayed by flame ionization gas chromatography using a stainless steel column (12'×1/8") packed with 10% Carbowax 20 M on 80/100 Chromosorb W and Porapak Q column. The column temperature was maintained isothermally at 120° C. The carrier gas flow rate was 30 ml/min. of helium. The various products were identified by retention time comparisons and co-chromatography with authentic standards.
Specific activities were expressed as μ moles of products formed per hour per mg. protein. Concentrations of protein in various fractions were determined by the method of Lowry et al., J. Biol. Chem., 193: 265-275 (1951).

[7] = test system: Methylosinus trichosporium OB3b (NRRL B-11,196); experiment: Oxidation by cell suspensions of methane-grown cells; format: cell-based; conditions: methane-grown cell-suspension; pH 7.0; 3° C.
[8] = test system: purified secondary alcohol dehydrogenase (SADH) from Pseudomonas sp. ATCC 21439; experiment: Kinetics and substrate specificity of purified SADH; format: biochemical
[9] = final concentration of 1 mM, measured spectrofluorometrically

CC(O)CO (centres unmarked) [1,2-propandiol]
oxidation by the purified enzyme [1]: not oxidized

CCCCCC(C)O (centres unmarked) [2-Heptanol]
oxidation by the purified enzyme [1]: not oxidized

CCCCCCC(C)O (centres unmarked) [2-octanol]
oxidation by the purified enzyme [1]: not oxidized

O=C(O)c1cc(SSc2ccc([N+](=O)[O-])c(C(=O)O)c2)ccc1[N+](=O)[O-] [5,5'-dithiobis(2-nitrobenzoic acid)]
% inhibition of SADH activity [2, 9]: 100%

[Co+2] [Co^++]
% inhibition of SADH activity [2, 9]: 0%

[Cl][Cu] [Cuprous Chloride]
Methane-Oxidizing Activity [3]: 7.2 μmoles/hr/mg protein | Propylene-Oxidizing Activity [3]: 9.2 μmoles/hr/mg protein

C1CCCCC1 [Cyclohexane]
conversion rate cyclohexane to cyclohexanol [4]: 1.5 μ moles/2 hr./mg. protein

O=C(O)CN(CCN(CC(=O)O)CC(=O)O)CC(=O)O [EDTA]
% inhibition of SADH activity [2]: 63%

CC [Ethane]
Conversion Rate to Ethanol [5]: 2.0 μmoles/hr./mg./protein | Rate of Product Formation [6]: 3.2 μ moles/hr/mg of protein | Conversion Rate to Ethanol [7]: 1.3 μmoles/hr./mg./protein

[Cl][Fe]([Cl])[Cl] [Ferric Chloride]
Methane-Oxidizing Activity [3]: 4.8 μmoles/hr/mg protein | Propylene-Oxidizing Activity [3]: 5.8 μmoles/hr/mg protein

[Mg+2] [Mg^++]
% inhibition of SADH activity [2, 9]: 0%

[Mn+2] [Mn^++]
% inhibition of SADH activity [2, 9]: 0%

CCN1C(=O)C=CC1=O [N-ethylmalemide]
% inhibition of SADH activity [2, 9]: 6%

[N-]=[N+]=[N-] [Sodium azide]
% inhibition of SADH activity [2, 9]: 10%

[Zn+2] [Zn^++]
% inhibition of SADH activity [2, 9]: 0%

O=Cc1ccccc1 [benzaldehyde]
oxidation by SADH [8]: not oxidized

c1ccccc1 [benzene]
oxidative conversion [4]: no oxidative conversion was detected

CCCCO [butan-1-ol]
oxidation by the purified enzyme [1]: not oxidized

CCC(O)CO (centres unmarked) [butane 1,2-diol]
oxidation by SADH [8]: not oxidized | oxidation by the purified enzyme [1]: not oxidized

CC(O)CCO (centres unmarked) [butane 1,3-diol]
oxidation by the purified enzyme [1]: not oxidized

[Cu+2] [cupric]
% inhibition of SADH activity [2, 9]: 25%

CCO [ethanol]
oxidation by the purified enzyme [1]: not oxidized

[Fe+3] [ferric]
% inhibition of SADH activity [2, 9]: 35%

[Fe+2] [ferrous]
% inhibition of SADH activity [2, 9]: 50%

C=O [formaldehyde]
oxidation by SADH [8]: not oxidized

O=C(O)CI [iodoacetic acid]
% inhibition of SADH activity [2]: 0%

CC(C)CO [isobutanol]
oxidation by SADH [8]: not oxidized

CO [methanol]
oxidation by the purified enzyme [1]: not oxidized

[Ni+2] [nickel]
% inhibition of SADH activity [2, 9]: 20%

CCCCCO [pentan-1-ol]
oxidation by the purified enzyme [1]: not oxidized

Oc1ccccc1 [phenol]
oxidation by SADH [8]: not oxidized

CCCO [propan-1-ol]
inhibition of SADH activity [2]: did not inhibit | oxidation by the purified enzyme [1]: not oxidized

CCC=O [propanal]
relative percent rate of oxidation ([8]; 2-butanol = 100%): 2%

O=C(O)CCC(=O)O [succinic acid]
oxidation by SADH [8]: not oxidized

Cc1ccccc1 [toluene]
oxidative conversion [4]: no oxidative conversion was detected

Ferrous Sulfate
Methane-Oxidizing Activity [3]: 4.8 μmoles/hr/mg protein | Propylene-Oxidizing Activity [3]: 5.9 μmoles/hr/mg protein

cytochrome c
electron acceptor / carrier [1]: could not act as electron carrier

Reference: US4347319A, “Microbiological epoxidation process” (priority 1980, dated 1982)
